Measured values: ChEMBL document CHEMBL3872276, “Antiproliferative activity and SARs of caffeic acid esters with mono-substituted phenylethanols moiety” (Bioorg Med Chem Lett, 2017)

Key:
[1] = cells; conditions: Homo sapiens, ECa-109, 48 h
[2] = cells; conditions: Homo sapiens, HeLa, 48 h
[3] = cells; conditions: Homo sapiens, DU-145, 48 h
[4] = cells; conditions: Homo sapiens, MCF7, 48 h

O=C(/C=C/c1ccc(O)c(O)c1)OCCc1ccccc1O
IC50 [1]: 40.2 µM
IC50 [2]: 29.4 µM
IC50 [3]: 24.4 µM
IC50 [4]: 21.8 µM

O=C(/C=C/c1ccc(O)c(O)c1)OCCc1ccc(Cl)cc1
IC50 [1]: 28.4 µM
IC50 [2]: 22.5 µM
IC50 [3]: 22.1 µM
IC50 [4]: 17.6 µM

O=C(/C=C/c1ccc(O)c(O)c1)OCCc1ccc(O)cc1 [TYROSOL CAFFEATE]
IC50 [1]: 49.4 µM
IC50 [2]: 45.8 µM
IC50 [3]: 51.9 µM
IC50 [4]: 53.2 µM

Cc1ccccc1CCOC(=O)/C=C/c1ccc(O)c(O)c1
IC50 [1]: 8.2 µM
IC50 [2]: 2.3 µM
IC50 [3]: 6.6 µM
IC50 [4]: 2.5 µM

CC(=O)O[C@H]1C(=O)[C@@]2(C)[C@H]([C@H](OC(=O)c3ccccc3)[C@]3(O)C[C@H](OC(=O)[C@H](O)[C@@H](NC(=O)c4ccccc4)c4ccccc4)C(C)=C1C3(C)C)[C@]1(OC(C)=O)CO[C@@H]1C[C@@H]2O [PACLITAXEL]
IC50 [1]: 0.94 µM
IC50 [2]: 0.036 µM
IC50 [3]: 0.011 µM
IC50 [4]: 0.63 µM

Cc1cccc(CCOC(=O)/C=C/c2ccc(O)c(O)c2)c1
IC50 [1]: 16.7 µM
IC50 [2]: 5.4 µM
IC50 [3]: 21.4 µM
IC50 [4]: 26.3 µM

O=C(/C=C/c1ccc(O)c(O)c1)OCCc1ccc(F)cc1
IC50 [1]: 51.9 µM
IC50 [2]: 35.8 µM
IC50 [3]: 12.8 µM
IC50 [4]: 29.9 µM

Cc1ccc(CCOC(=O)/C=C/c2ccc(O)c(O)c2)cc1
IC50 [1]: 20.9 µM
IC50 [2]: 25.8 µM
IC50 [3]: 36.9 µM
IC50 [4]: 20.6 µM

CC(C)Oc1ccccc1CCOC(=O)/C=C/c1ccc(O)c(O)c1
IC50 [1]: 15.1 µM
IC50 [2]: 3.2 µM
IC50 [3]: 9.1 µM
IC50 [4]: 5.6 µM

O=C(/C=C/c1ccc(O)c(O)c1)OCCc1ccc(Br)cc1
IC50 [1]: 40.3 µM
IC50 [2]: 56.8 µM
IC50 [3]: 35.4 µM
IC50 [4]: 28.2 µM

CCc1ccccc1CCOC(=O)/C=C/c1ccc(O)c(O)c1
IC50 [1]: 7.3 µM
IC50 [2]: 4.2 µM
IC50 [3]: 4.7 µM
IC50 [4]: 8.7 µM

O=C(/C=C/c1ccc(O)c(O)c1)OCCc1ccccc1 [CAFFEIC ACID PHENETHYL ESTER]
IC50 [1]: 47.5 µM
IC50 [2]: 33 µM
IC50 [3]: 16 µM
IC50 [4]: 28.8 µM

COc1ccccc1CCOC(=O)/C=C/c1ccc(O)c(O)c1
IC50 [1]: 5.9 µM
IC50 [2]: 1.6 µM
IC50 [3]: 2 µM
IC50 [4]: 7.1 µM

COc1ccc(CCOC(=O)/C=C/c2ccc(O)c(O)c2)cc1
IC50 [1]: 111 µM
IC50 [2]: 67.7 µM
IC50 [3]: 67.5 µM
IC50 [4]: 78 µM
